This assay deals with T1, Protein mono-ADP-ribosyltransferase TIPARP (Homo sapiens, UniProt Q7Z3E1).
T1 sequence (Q7Z3E1 whole entry): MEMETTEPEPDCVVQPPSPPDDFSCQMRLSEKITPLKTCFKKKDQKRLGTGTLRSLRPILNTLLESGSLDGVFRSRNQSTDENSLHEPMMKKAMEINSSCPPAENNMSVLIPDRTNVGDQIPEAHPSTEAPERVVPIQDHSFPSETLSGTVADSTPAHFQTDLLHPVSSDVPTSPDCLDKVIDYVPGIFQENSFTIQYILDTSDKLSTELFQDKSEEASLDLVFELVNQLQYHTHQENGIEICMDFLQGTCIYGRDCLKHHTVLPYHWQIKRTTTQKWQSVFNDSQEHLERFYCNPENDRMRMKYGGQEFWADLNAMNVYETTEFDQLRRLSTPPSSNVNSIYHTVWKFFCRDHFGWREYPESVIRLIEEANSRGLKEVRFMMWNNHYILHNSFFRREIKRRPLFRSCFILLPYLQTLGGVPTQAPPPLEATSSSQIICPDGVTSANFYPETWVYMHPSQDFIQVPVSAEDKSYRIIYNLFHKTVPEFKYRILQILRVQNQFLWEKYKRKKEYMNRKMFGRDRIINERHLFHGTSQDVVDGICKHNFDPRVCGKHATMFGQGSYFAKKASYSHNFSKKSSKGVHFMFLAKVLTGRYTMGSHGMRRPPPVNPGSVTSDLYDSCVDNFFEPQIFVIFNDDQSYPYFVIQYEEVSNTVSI
As to the kind of experiment: Inhibition of PARP7 in human NCI-H1373 cells assessed as increase in STAT1 phosphorylation at Tyr701 incubated for 48 hrs by LANCE Ultra sandwich assay. The assay is classed as cell-based.

As for `C[C@@H](C[C@H](F)Cn1ccc2cc(-c3ncc(C(F)F)c(N)n3)c(F)cc2c1=O)Oc1cn[nH]c(=O)c1C(F)(F)F`, the EC50 worked out at 0.786 nM.

Consider `C[C@@H](C[C@@H](F)Cn1ccc2cc(-c3ncc(C(F)F)cn3)c(F)c(F)c2c1=O)Oc1cn[nH]c(=O)c1C(F)(F)F`, for which the EC50 stood at 0.46 nM.

For the compound `C[C@@H](C[C@@H](F)Cn1ccc2cc(-c3ncc(C(C)(F)F)cn3)c(F)c(F)c2c1=O)Oc1cn[nH]c(=O)c1C(F)(F)F`, the EC50 amounted to 0.667 nM.

With `C[C@@H](C[C@@H](F)Cn1ccc2cc(-c3ncc(Cl)cn3)c(F)c(F)c2c1=O)Oc1cn[nH]c(=O)c1C(F)(F)F`, the half-maximal effective concentration (EC50) was determined as 0.62 nM.

As for `COc1cnc(-c2cc3ccn(C[C@H](F)C[C@H](C)Oc4cn[nH]c(=O)c4C(F)(F)F)c(=O)c3c(F)c2F)nc1`, the EC50 worked out at 0.375 nM.

`C[C@@H](C[C@H](F)Cn1cc(F)c2cc(-c3ncc(C(F)F)c(N)n3)c(F)cc2c1=O)Oc1cn[nH]c(=O)c1C(F)(F)F`: the EC50 came to 0.42 nM.

(Values after ChEMBL document CHEMBL6109167, “Novel PARP7 Inhibitors for Treating Cancer” (ACS Med Chem Lett, 2025).)
